# From patent US20250296971A1, “GASTRIC INHIBITORY PEPTIDE RECEPTOR LIGANDS” (priority 2021, published 2025)
# *1 amine or outer side, *2 acyl side, *3 side chain or, on linkers, in order; H or OH if unused. Where a SMILES comes first, the peptide text is derived from it. Bridges are numbered along the chain shown (N, C = ends). Side-chain parts run from the residue outwards. [ ]: non-standard residue; d: D form. The star is where a group is joined. X5 = NC(=O)[C@H](CCCCNC(=O)CN1CCN(CC(=O)O)CCN(CC(=O)O)CCN(CC(=O)O)CC1)NC(=O)CCC(=O)NCCCOCCOCCOCCCN*; X11 = O=C(CN1CCN2CCN3CCN(CC1)CC(=O)[O][In]([O]C(=O)C2)[O]C(=O)C3)NCCCOCCOCCOCCCN*; X13 = O=C(CN1CCN2CCN3CCN(CC1)CC(=O)[O][Lu]([O]C(=O)C2)[O]C(=O)C3)NCCCOCCOCCOCCCN*; NH(1-deoxy-D-glucityl) = OC[C@@H](O)[C@@H](O)[C@H](O)[C@@H](O)CN*; Pro(trans-4-NH2) = O=C([C@@H]1C[C@@H](N[*:3])CN1[*:1])[*:2]; DOTA = O=C(O)CN1CCN(CC(=O)O)CCN(CC(=O)*)CCN(CC(=O)O)CC1; Trp(5-Cl) = N[C@@H](Cc1c[nH]c2ccc(Cl)cc12)C(=O)O; Trp(5-OH) = N[C@@H](Cc1c[nH]c2ccc(O)cc12)C(=O)O; Pyridine(2,6-diCH2) = c1cc(C[*:1])nc(C[*:2])c1; Pro(4R-NH2) = N[C@H]1CN[C@H](C(=O)O)C1; 1Nal = N[C@@H](Cc1cccc2ccccc12)C(=O)O; mXylylene = c1cc(C[*:1])cc(C[*:2])c1; Glutaryl = O=C(CCCC(=O)[*:2])[*:1]; X6 = c1cc(CSCCN[*:2])nc(C[*:1])c1; X7 = c1cc(CSCCN[*:2])cc(C[*:1])c1; Hyp = O=C(O)[C@@H]1C[C@@H](O)CN1; X1 = O=C(CN1CCC(N[*:1])CC1)[*:2]; 2Thi = N[C@@H](Cc1cccs1)C(=O)O; Cha = N[C@@H](CC1CCCCC1)C(=O)O; Suc = O=C(CCC(=O)[*:2])[*:1]; Tle = CC(C)(C)[C@H](N)C(=O)O; Api = NC1(C(=O)O)CCNCC1; Thp = NC1(C(=O)O)CCOCC1; Aib = CC(C)(N)C(=O)O
# Biological target: T1, GIPR (CHO-K1-hGIPR cells) (Homo sapiens, UniProt P48546)
# T1 construct: host or cells: CHO-K1
# T1 sequence (P48546 22-466): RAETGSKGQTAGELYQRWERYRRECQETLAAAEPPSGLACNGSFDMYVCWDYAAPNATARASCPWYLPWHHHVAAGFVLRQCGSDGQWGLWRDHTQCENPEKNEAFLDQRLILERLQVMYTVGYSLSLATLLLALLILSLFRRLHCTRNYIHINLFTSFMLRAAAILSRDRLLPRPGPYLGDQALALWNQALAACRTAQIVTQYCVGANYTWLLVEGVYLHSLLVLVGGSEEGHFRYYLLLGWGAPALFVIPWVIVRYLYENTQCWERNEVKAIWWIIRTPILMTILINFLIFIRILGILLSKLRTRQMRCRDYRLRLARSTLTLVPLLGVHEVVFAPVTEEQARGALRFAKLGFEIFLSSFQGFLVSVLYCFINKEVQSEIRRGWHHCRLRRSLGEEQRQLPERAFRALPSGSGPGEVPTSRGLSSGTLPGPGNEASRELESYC
# Experiment: FACS binding assay
# Conditions: competition with 20 nM GIP-057, 4° C. for 1 hour, read-out: pIC50 Category (converted)
# Outline: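 CHO-K1 cells stably expressing human GIPR were detached with Accutase, suspended at 500.000 cells per mL in PBS with 1% FCS, and washed ice-cold. Bound peptide was detected with 1 μg/mL APC-streptavidin for 30 min on ice.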
row,SMILES,IC50
1,"CC[C@H](C)[C@@H]1NC(=O)[C@H](C(C)(C)C)NC(=O)C(C)(C)NC(=O)[C@@H](NC(=O)[C@H](CC(C)C)NC(=O)[C@H](CCC(=O)O)NC(=O)[C@@H]2CCCN2C(=O)[C@H](Cc2c[nH]c3ccccc23)NC(=O)[C@H](Cc2c[nH]c3ccccc23)NC(=O)[C@H](CC(=O)O)NC(C)=O)CSCc2cccc(c2)CSC[C@@H](C(=O)NCCCOCCOCCOCCCNC(=O)CCC(=O)N[C@@H](CCCCNC(=O)CN2CCN(CC(=O)O)CCN(CC(=O)O)CCN(CC(=O)O)CC2)C(N)=O)NC1=O [GIP-276, Ac-Asp-Trp-Trp-Pro-Glu-Leu-[Cys(3MeBn)-Aib-Tle-Ile-Cys]-Ttds-Lys(DOTA)-NH2] (Ac-DWWPELC[Aib][Tle]IC-X5; linker 7-11 via mXylylene)",100 to 794 nM
2,"CC[C@H](C)[C@@H]1NC(=O)[C@H](CC(C)C)NC(=O)C(C)(C)NC(=O)[C@@H](NC(=O)[C@H](Cc2cccs2)NC(=O)[C@H](CCC(=O)O)NC(=O)[C@@H]2CCCN2C(=O)[C@H](Cc2cccc3ccccc23)NC(=O)[C@H](Cc2c[nH]c3ccccc23)NC(=O)[C@H](CC(=O)O)NC(C)=O)CSCc2cccc(c2)CSC[C@@H](C(N)=O)NC1=O [GIP-343, Ac-Asp-Trp-1Ni-Pro-Glu-Thi-[Cys(3MeBn)-Aib-Leu-Ile-Cys]-NH2] (Ac-DW[1Nal]PE[2Thi]C[Aib]LIC-NH2; linker 7-11 via mXylylene)",> 1000 nM
3,"CC[C@H](C)[C@@H]1NC(=O)[C@H](CC(C)C)NC(=O)C(C)(C)NC(=O)[C@@H](NC(=O)[C@@H](CC(C)C)NC(=O)[C@H](CCC(=O)O)NC(=O)[C@@H]2CCCN2C(=O)[C@H](Cc2c[nH]c3ccc(O)cc23)NC(=O)[C@H](Cc2c[nH]c3ccccc23)NC(=O)[C@H](CC(=O)O)NC(C)=O)CSCc2cccc(c2)CSC[C@@H](C(=O)NCCCOCCOCCOCCCNC(=O)CCC(=O)N[C@@H](CCCCNC(=O)CN2CCN(CC(=O)O)CCN(CC(=O)O)CCN(CC(=O)O)CC2)C(N)=O)NC1=O [GIP-302, Ac-Asp-Trp-Hyw-Pro-Glu-leu-[Cys(3MeBn)-Aib-Leu-Ile-Cys]-Ttds-Lys(DOTA)-NH2] (Ac-DW[Trp(5-OH)]PE[dL]C[Aib]LIC-X5; linker 7-11 via mXylylene)",> 1000 nM
4,"CC[C@H](C)[C@@H]1NC(=O)[C@H](CC(C)C)NC(=O)C(C)(C)NC(=O)[C@@H](NC(=O)[C@H](Cc2ccccc2)NC(=O)[C@H](CCC(=O)O)NC(=O)[C@@H]2CCCN2C(=O)[C@H](Cc2cccc3ccccc23)NC(=O)[C@H](Cc2c[nH]c3ccccc23)NC(=O)[C@H](CC(=O)O)NC(C)=O)CSCc2cccc(c2)CSC[C@@H](C(N)=O)NC1=O [GIP-344, Ac-Asp-Trp-1Ni-Pro-Glu-Phe-[Cys(3MeBn)-Aib-Leu-Ile-Cys]-NH2] (Ac-DW[1Nal]PEFC[Aib]LIC-NH2; linker 7-11 via mXylylene)",> 1000 nM
5,"CC[C@H](C)[C@@H]1NC(=O)[C@H](CC(C)C)NC(=O)C2(CCOCC2)NC(=O)[C@@H](NC(=O)[C@@H](CC(C)C)NC(=O)[C@H](C)NC(=O)[C@@H]2C[C@@H](O)CN2C(=O)[C@H](Cc2c[nH]c3ccc(Cl)cc23)NC(=O)[C@H](Cc2c[nH]c3ccccc23)NC(=O)[C@H](CC(=O)O)NC(C)=O)CSCc2cccc(n2)CSC[C@@H](C(N)=O)NC1=O [GIP-386, Ac-Asp-Trp-5Clw-Hyp-Ala-leu-[Cys(2Lut)-Thp-Leu-Ile-Cys]-NH2] (Ac-DW[Trp(5-Cl)][Hyp]A[dL]C[Thp]LIC-NH2; linker 7-11 via Pyridine(2,6-diCH2))",< 10 nM
6,"CC[C@H](C)[C@@H]1NC(=O)[C@H](CC(C)C)NC(=O)C(C)(C)NC(=O)[C@@H](NC(=O)[C@H](CC2CCCCC2)NC(=O)[C@H](CCC(=O)O)NC(=O)[C@@H]2CCCN2C(=O)[C@H](Cc2c[nH]c3ccccc23)NC(=O)[C@H](Cc2c[nH]c3ccccc23)NC(=O)[C@H](CC(=O)O)NC(C)=O)CSCc2cccc(c2)CSC[C@@H](C(=O)NCCCOCCOCCOCCCNC(=O)CCC(=O)N[C@@H](CCCCNC(=O)CN2CCN(CC(=O)O)CCN(CC(=O)O)CCN(CC(=O)O)CC2)C(N)=O)NC1=O [GIP-295, Ac-Asp-Trp-Trp-Pro-Glu-Cha-[Cys(3MeBn)-Aib-Leu-Ile-Cys]-Ttds-Lys(DOTA)-NH2] (Ac-DWWPE[Cha]C[Aib]LIC-X5; linker 7-11 via mXylylene)",> 1000 nM

# Same assay, conditions: competition with 20 nM GIP-057, 4° C., 1 hour, read-out: pIC50 Category (converted)
row,SMILES,IC50
1,"CC[C@H](C)[C@@H]1NC(=O)[C@H](CC(C)C)NC(=O)C(C)(C)NC(=O)[C@@H](NC(=O)[C@H](CC(C)C)NC(=O)[C@H](CCC(=O)O)NC(=O)[C@@H]2CCCN2C(=O)[C@H](Cc2c[nH]c3ccccc23)NC(=O)[C@H](Cc2c[nH]c3ccccc23)NC(=O)[C@H](CC(=O)O)NC(C)=O)CSCc2cccc(c2)CSC[C@@H](C(=O)NCCCOCCOCCOCCCNC(=O)CCC(=O)N[C@@H](CCCCNC(=O)CN2CCN(CC(=O)O)CCN(CC(=O)O)CCN(CC(=O)O)CC2)C(N)=O)NC1=O [GIP-131, Ac-Asp-Trp-Trp-Pro-Glu-Leu-[Cys(3MeBn)-Aib-Leu-Ile-Cys]-Ttds-Lys(DOTA)-NH2] (Ac-DWWPELC[Aib]LIC-X5; linker 7-11 via mXylylene)",10 to 79.4 nM
2,"CC[C@H](C)[C@@H]1NC(=O)[C@H](CC(C)C)NC(=O)C2(CCN(C(=O)CN3CCN(CC(=O)O)CCN(CC(=O)O)CCN(CC(=O)O)CC3)CC2)NC(=O)[C@@H](NC(=O)[C@@H](CC(C)C)NC(=O)[C@H](CCC(=O)O)NC(=O)[C@@H]2C[C@@H](N)CN2C(=O)[C@H](Cc2c[nH]c3ccc(Cl)cc23)NC(=O)[C@H](Cc2c[nH]c3ccccc23)NC(=O)[C@H](CC(=O)O)NC(=O)CN2CCC(NC(=O)CCCC(=O)NC[C@H](O)[C@@H](O)[C@H](O)[C@H](O)CO)CC2)CSCc2cccc(n2)CSC[C@@H](C(=O)N[C@H](CCC(=O)NC[C@H](O)[C@@H](O)[C@H](O)[C@H](O)CO)C(N)=O)NC1=O [GIP-033, AGLU-Glutar-APAc-Asp-Trp-5Clw-Hyp-Glu-leu-[Cys(2Lut)-Apc(DOTA)-Leu-Ile-Cys]-glu(AGLU)-NH2] ({NH(1-deoxy-D-glucityl)-Glutaryl}-[X1]DW[Trp(5-Cl)][Pro(4R-NH2)]E[dL]C[Api](DOTA)LIC[dE](NH(1-deoxy-D-glucityl))-NH2; linker 8-12 via Pyridine(2,6-diCH2))",< 10 nM
3,"CC(=O)N[C@@H](CC(=O)O)C(=O)N[C@@H](Cc1c[nH]c2ccccc12)C(=O)N[C@@H](Cc1c[nH]c2ccc(Cl)cc12)C(=O)N1C[C@H](O)C[C@H]1C(=O)N[C@@H](CCC(=O)O)C(=O)N[C@H](CC(C)C)C(=O)N[C@H]1CSCc2cccc(n2)CSC[C@@H](C(N)=O)NC(=O)[C@H](CC(C)C)NC(=O)[C@H](CC(C)C)NC(=O)C2(CCOCC2)NC1=O [GIP-237, Ac-Asp-Trp-5Clw-Hyp-Glu-leu-[Cys(2Lut)-Thp-Leu-Leu-Cys]-NH2] (Ac-DW[Trp(5-Cl)][Hyp]E[dL]C[Thp]LLC-NH2; linker 7-11 via Pyridine(2,6-diCH2))",< 10 nM
4,"CC[C@H](C)[C@@H]1NC(=O)[C@H](CC(C)C)NC(=O)C2(CCOCC2)NC(=O)[C@@H](NC(=O)[C@@H](CC(C)C)NC(=O)[C@H](CCC(=O)O)NC(=O)[C@@H]2C[C@@H](NC(=O)CCCC(=O)NC[C@H](O)[C@@H](O)[C@H](O)[C@H](O)CO)CN2C(=O)[C@H](Cc2c[nH]c3ccc(Cl)cc23)NC(=O)[C@H](Cc2c[nH]c3ccccc23)NC(=O)[C@H](CC(=O)O)NC(C)=O)CSCc2cccc(n2)CSC[C@@H](C(N)=O)NC1=O [GIP-175, Ac-Asp-Trp-5Clw-Tap (AGLU-Glutar)-Glu-leu-[Cys(2Lut)-Thp-Leu-Ile-Cys]-NH2] (Ac-DW[Trp(5-Cl)][Pro(trans-4-NH2)]([Glutaryl-NH(1-deoxy-D-glucityl)])E[dL]C[Thp]LIC-NH2; linker 7-11 via Pyridine(2,6-diCH2))",< 10 nM
5,"CC[C@H](C)[C@@H]1NC(=O)[C@H](CC(C)C)NC(=O)C(C)(C)NC(=O)[C@@H](NC(=O)[C@@H](CC(C)C)NC(=O)[C@H](CCC(=O)O)NC(=O)[C@@H]2CCCN2C(=O)[C@H](Cc2c[nH]c3ccc(Cl)cc23)NC(=O)[C@H](Cc2c[nH]c3ccccc23)NC(=O)[C@H](CC(=O)O)NC(=O)CCC(=O)NCCCOCCOCCOCCCNC(=O)CN2CCN3CCN4CCN(CC2)CC(=O)[O][In]([O]C(=O)C3)[O]C(=O)C4)CSCc2cccc(n2)CSCCNC1=O [GIP-154, InDOTA-Ttds-Asp-Trp-5Clw-Pro-Glu-leu-[Cys(2Lut)-Aib-Leu-Ile-AET]] ({X11-Suc}-DW[Trp(5-Cl)]PE[dL]C[Aib]LI; linker 7-C via X6)",< 10 nM

# Same assay, conditions: pIC50 Category, competition with 20 nM GIP-057, 4° C., 1 hour
row,SMILES,IC50
1,"CC[C@H](C)[C@@H]1NC(=O)[C@H](CC(C)C)NC(=O)C2(CCOCC2)NC(=O)[C@@H](NC(=O)[C@@H](CC(C)C)NC(=O)[C@H](CCC(=O)O)NC(=O)[C@@H]2CCCN2C(=O)[C@H](Cc2c[nH]c3ccc(Cl)cc23)NC(=O)[C@H](Cc2c[nH]c3ccccc23)NC(=O)[C@H](CC(=O)O)NC(=O)CCC(=O)NCCCOCCOCCOCCCNC(=O)CN2CCN3CCN4CCN(CC2)CC(=O)[O][Lu]([O]C(=O)C3)[O]C(=O)C4)CSCc2cccc(c2)CSCCNC1=O [GIP-158, LuDOTA-Ttds-Asp-Trp-5Clw-Pro-Glu-leu-[Cys(3MeBn)-Thp-Leu-Ile-AET]] ({X13-Suc}-DW[Trp(5-Cl)]PE[dL]C[Thp]LI; linker 7-C via X7)",< 10 nM
